Assays:
Assay in all cases: relative viability (nuclei count vs DMSO), 5 days (fraction); higher = more cells survive
Trametinib + Palbociclib = compound: CC(=O)Nc1cccc(-n2c(=O)n(C3CC3)c(=O)c3c(Nc4ccc(I)cc4F)n(C)c(=O)c(C)c32)c1 [Trametinib] + CC(=O)c1c(C)c2cnc(Nc3ccc(N4CCNCC4)cn3)nc2n(C2CCCC2)c1=O [Palbociclib] (partner 0.5 µM)
How it was run: (§1)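 Nuclei were stained with Hoechst during a one-step fixation (final 0.05% Triton X-100, 1% formaldehyde, 1 ug/ml Hoechst) carried out 5 days after dosing, then counted on 4× images. The cells, lung cancer lines in 1536-well plates, had been dosed by pin tool the day after seeding with one drug alone or a fixed anchor-drug dose plus five library-drug doses (not always all listed) in √10 steps. Relative viability is the nuclei count in treated wells divided by that in vehicle wells, and each value is the median of duplicate plates.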

[1] = compound: CN1C=C(C2=CC=CC=C21)/C=C\3/C4=C(C=CC=N4)NC3=O + NC(=O)Nc1cc(-c2cccc(F)c2)sc1C(=O)N[C@H]1CCCNC1 [AZD7762] (partner 0.2 µM)
How it was run: as §1

[2] = compound: CN1C=C(C2=CC=CC=C21)/C=C\3/C4=C(C=CC=N4)NC3=O + COc1cccc2cc(-c3nc([C@H]4CC[C@H](C(=O)O)CC4)n4ncnc(N)c34)[nH]c12 [OSI-027] (partner 0.5 µM)
How it was run: as §1

[3] = compound: CN1C=C(C2=CC=CC=C21)/C=C\3/C4=C(C=CC=N4)NC3=O + CC(=O)Nc1cccc(-n2c(=O)n(C3CC3)c(=O)c3c(Nc4ccc(I)cc4F)n(C)c(=O)c(C)c32)c1 [Trametinib] (partner 0.02 µM)
How it was run: as §1

Cell Line	relative viability (Trametinib + Palbociclib; first compound 0.0025 µM)	relative viability (Trametinib + Palbociclib; first compound 0.007906 µM)	relative viability (Trametinib + Palbociclib; first compound 0.025 µM)	relative viability (Trametinib + Palbociclib; first compound 0.07906 µM)	relative viability (Trametinib + Palbociclib; first compound 0.25 µM)	relative viability ([1]; first compound 0.02 µM)	relative viability ([1]; first compound 0.06325 µM)	relative viability ([1]; first compound 0.2 µM)	relative viability ([1]; first compound 0.6325 µM)	relative viability ([1]; first compound 2 µM)	relative viability ([2]; first compound 0.02 µM)	relative viability ([2]; first compound 0.06325 µM)	relative viability ([2]; first compound 0.2 µM)	relative viability ([2]; first compound 0.6325 µM)	relative viability ([2]; first compound 2 µM)	relative viability ([3]; first compound 0.02 µM)	relative viability ([3]; first compound 0.06325 µM)	relative viability ([3]; first compound 0.2 µM)	relative viability ([3]; first compound 0.6325 µM)	relative viability ([3]; first compound 2 µM)
NCI-H2126	0.331	0.346	0.33	0.304	0.349	1.01	0.899	0.864	1	1	0.605	0.657	0.6	0.697	0.612	0.558	0.55	0.564	0.212	0.506
ChaGo-K-1	0.926	0.778	0.912	0.852	0.75	0.703	0.868	0.723	0.848	0.877	0.56	0.672	0.339	0.613	0.609	0.864	0.917	0.868	0.871	0.871
NCI-H1437	0.319	0.226	0.204	0.196	0.211	1.23	1.2	1.1	1.17	1.26	0.862	0.897	0.793	0.927	1.01	0.596	0.593	0.545	0.453	0.531
NCI-H838	0.207	0.183	0.162	0.159	0.202	0.81	0.753	0.789	0.871	0.632	0.335	0.326	0.354	0.366	0.319	0.467	0.413	0.527	0.469	0.459
NCI-H1755	0.425	0.406	0.384	0.392	0.365	0.443	0.408	0.354	0.448	0.409	0.619	0.654	0.655	0.683	0.644	0.782	0.83	0.76	0.737	0.696
NCI-H1915	0.477	0.382	0.196	0.19	0.143	0.678	0.646	0.529	0.751	0.699	0.621	0.635	0.665	0.673	0.761	0.3	0.32	0.293	0.303	0.285
NCI-H2347	0.372	0.363	0.324	0.316	0.291	0.778	0.728	0.56	0.79	0.83		0.347	0.483	0.552	0.378	0.246	0.271	0.296	0.319	0.274
HARA	0.236	0.202	0.205	0.192	0.198	0.197	0.368		0.358	0.345	0.539	0.449		0.505	0.586	0.673	0.635		0.605	0.492
NCI-H2085	0.494	0.421	0.371	0.395	0.406	0.97	1.03	0.968	0.956	0.947	0.897	0.717	0.597	0.716	0.67	0.504	0.514	0.513	0.445	0.408
NCI-H650	0.421	0.469	0.487	0.535	0.374	1.05	0.939		1.2	0.965	0.628	0.515		0.529	0.506	0.928	0.943		0.942	0.907
NCI-H727	0.577	0.513	0.41	0.382	0.384	0.575	0.563	0.405	0.591	0.511	0.57	0.553	0.408	0.657	0.58	0.461	0.344	0.361	0.373	0.401
NCI-H1993	0.553	0.526	0.548	0.61	0.448	0.704	0.666	0.671	0.698	0.626	0.454	0.515	0.587	0.571	0.577	0.517	0.5	0.589	0.342	0.507
EMC-BAC-2	0.581	0.555	0.495	0.502	0.357	0.963	0.963	0.91	1.03	1	0.388	0.384	0.391	0.405	0.362	0.926	0.872	0.892	0.927	0.956
NCI-H2087	0.162	0.137	0.127	0.111	0.0967	1.41	1.33	1.31	1.22	1.37	0.75	0.403	0.47	0.642	0.587	0.149	0.208	0.153	0.189	0.215
NCI-H441	0.154	0.172	0.132	0.147	0.132	1.15	1.21	1.19	1.06	1.05	0.557	0.646	0.739	0.607	0.459	0.468	0.511	0.492	0.544	0.52
LXF-289	0.526	0.508	0.423	0.429	0.379	1.14	1.16	0.975	1.21	1.1	0.857	0.763	0.715	0.731	0.745	0.677	0.679	0.739	0.717	0.72
